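96-well plates; 48 h exposure; 5 concentrations. Endpoints by linear interpolation between flanking doses. Not reached: highest tested concentration assigned. GI50: concentration for 50% inhibition of growth. At the TGI there is no net growth.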
Legend:
Test in all cases: DTP human tumour cell line panel, 48 h
786-0 renal = system: 786-0 renal
A498 renal = system: A498 renal
A549 NSCLC = system: A549 NSCLC
ACHN renal = system: ACHN renal
BT-549 breast = system: BT-549 breast
CAKI-1 renal = system: CAKI-1 renal
CCRF-CEM leukemia = system: CCRF-CEM leukemia
COLO 205 colon = system: COLO 205 colon
DU-145 prostate = system: DU-145 prostate
EKVX NSCLC = system: EKVX NSCLC
HCC-2998 colon = system: HCC-2998 colon
HCT-116 colon = system: HCT-116 colon
HCT-15 colon = system: HCT-15 colon
HL-60(TB) leukemia = system: HL-60(TB) leukemia
HOP-62 NSCLC = system: HOP-62 NSCLC
HOP-92 NSCLC = system: HOP-92 NSCLC
HS 578T breast = system: HS 578T breast
HT29 colon = system: HT29 colon
IGROV1 ovarian = system: IGROV1 ovarian
K-562 leukemia = system: K-562 leukemia
KM12 colon = system: KM12 colon
LOX IMVI melanoma = system: LOX IMVI melanoma
M14 melanoma = system: M14 melanoma
MALME-3M melanoma = system: MALME-3M melanoma
MCF7 breast = system: MCF7 breast
MDA-MB-435 = system: MDA-MB-435
MDA-MB-468 breast = system: MDA-MB-468 breast
MOLT-4 leukemia = system: MOLT-4 leukemia
NCI-H226 lung = system: NCI-H226 lung
NCI-H23 lung = system: NCI-H23 lung
NCI-H460 lung = system: NCI-H460 lung
NCI-H522 lung = system: NCI-H522 lung
NCI/ADR-RES ovarian = system: NCI/ADR-RES ovarian
OVCAR-3 ovarian = system: OVCAR-3 ovarian
OVCAR-4 ovarian = system: OVCAR-4 ovarian
OVCAR-5 ovarian = system: OVCAR-5 ovarian
OVCAR-8 ovarian = system: OVCAR-8 ovarian
PC-3 prostate = system: PC-3 prostate
RPMI-8226 leukemia = system: RPMI-8226 leukemia
RXF 393 renal = system: RXF 393 renal
SF-268 CNS = system: SF-268 CNS
SF-295 CNS = system: SF-295 CNS
SF-539 CNS = system: SF-539 CNS
SK-MEL-2 melanoma = system: SK-MEL-2 melanoma
SK-MEL-28 melanoma = system: SK-MEL-28 melanoma
SK-MEL-5 melanoma = system: SK-MEL-5 melanoma
SK-OV-3 ovarian = system: SK-OV-3 ovarian
SN12C renal = system: SN12C renal
SNB-19 CNS = system: SNB-19 CNS
SNB-75 CNS = system: SNB-75 CNS
SW-620 colon = system: SW-620 colon
T-47D breast = system: T-47D breast
TK-10 renal = system: TK-10 renal
U251 CNS = system: U251 CNS
UACC-257 melanoma = system: UACC-257 melanoma
UACC-62 melanoma = system: UACC-62 melanoma

**Q.** Which GI50 (786-0 renal) does the source give for COc1cccc(-c2ccc(/C=N/NC(=O)c3[nH]c4ccc(Br)cc4c3-c3ccccc3)o2)c1 here?
**A.** 2.84 µM

**Q.** And the TGI (786-0 renal)?
**A.** 8.73 µM

**Q.** And the GI50 (A498 renal)?
**A.** 93.2 µM

**Q.** And the TGI (A498 renal)?
**A.** > 100 µM

**Q.** And the GI50 (A549 NSCLC)?
**A.** 3.55 µM

**Q.** What about the TGI (A549 NSCLC) of the same molecule?
**A.** 17.7 µM

**Q.** And the GI50 (ACHN renal)?
**A.** 5.43 µM

**Q.** And the TGI (ACHN renal)?
**A.** > 100 µM

**Q.** What about the GI50 (BT-549 breast) of the same molecule?
**A.** 2.8 µM

**Q.** And the TGI (BT-549 breast)?
**A.** 7.06 µM

**Q.** And the GI50 (CAKI-1 renal)?
**A.** 11.4 µM

**Q.** And the TGI (CAKI-1 renal)?
**A.** > 100 µM

**Q.** What about the GI50 (CCRF-CEM leukemia) of the same molecule?
**A.** 4.19 µM

**Q.** And the TGI (CCRF-CEM leukemia)?
**A.** 9.66 µM

**Q.** And the GI50 (COLO 205 colon)?
**A.** 2.48 µM

**Q.** And the TGI (COLO 205 colon)?
**A.** 7.74 µM

**Q.** And the GI50 (DU-145 prostate)?
**A.** 4.19 µM

**Q.** What about the TGI (DU-145 prostate) of the same molecule?
**A.** > 100 µM

**Q.** What about the GI50 (EKVX NSCLC) of the same molecule?
**A.** 6.71 µM

**Q.** What about the TGI (EKVX NSCLC) of the same molecule?
**A.** > 100 µM

**Q.** And the GI50 (HCC-2998 colon)?
**A.** 4.16 µM

**Q.** And the TGI (HCC-2998 colon)?
**A.** 72.9 µM

**Q.** And the GI50 (HCT-116 colon)?
**A.** 3.33 µM

**Q.** What about the TGI (HCT-116 colon) of the same molecule?
**A.** 12.3 µM

**Q.** And the GI50 (HCT-15 colon)?
**A.** 3.34 µM

**Q.** What about the TGI (HCT-15 colon) of the same molecule?
**A.** 16.9 µM

**Q.** And the GI50 (HL-60(TB) leukemia)?
**A.** 2.21 µM

**Q.** And the TGI (HL-60(TB) leukemia)?
**A.** 5.08 µM

**Q.** And the GI50 (HOP-62 NSCLC)?
**A.** 3.54 µM

**Q.** What about the TGI (HOP-62 NSCLC) of the same molecule?
**A.** 15.3 µM

**Q.** What about the GI50 (HOP-92 NSCLC) of the same molecule?
**A.** 12.8 µM

**Q.** And the TGI (HOP-92 NSCLC)?
**A.** 46 µM

**Q.** And the GI50 (HS 578T breast)?
**A.** 3.73 µM

**Q.** What about the TGI (HS 578T breast) of the same molecule?
**A.** 41.2 µM

**Q.** What about the GI50 (HT29 colon) of the same molecule?
**A.** 2.36 µM

**Q.** And the TGI (HT29 colon)?
**A.** 5.47 µM

**Q.** And the GI50 (IGROV1 ovarian)?
**A.** 4.6 µM

**Q.** And the TGI (IGROV1 ovarian)?
**A.** > 100 µM

**Q.** And the GI50 (K-562 leukemia)?
**A.** 2.89 µM

**Q.** And the TGI (K-562 leukemia)?
**A.** 12.9 µM

**Q.** What about the GI50 (KM12 colon) of the same molecule?
**A.** 3.96 µM

**Q.** What about the TGI (KM12 colon) of the same molecule?
**A.** 49.6 µM

**Q.** And the GI50 (LOX IMVI melanoma)?
**A.** 3.84 µM

**Q.** And the TGI (LOX IMVI melanoma)?
**A.** 16.6 µM

**Q.** And the GI50 (M14 melanoma)?
**A.** 3.49 µM

**Q.** What about the TGI (M14 melanoma) of the same molecule?
**A.** > 100 µM

**Q.** What about the GI50 (MALME-3M melanoma) of the same molecule?
**A.** 3.72 µM

**Q.** What about the TGI (MALME-3M melanoma) of the same molecule?
**A.** 32.6 µM

**Q.** And the GI50 (MCF7 breast)?
**A.** 3.5 µM

**Q.** And the TGI (MCF7 breast)?
**A.** > 100 µM

**Q.** What about the GI50 (MDA-MB-435) of the same molecule?
**A.** 2.72 µM

**Q.** And the TGI (MDA-MB-435)?
**A.** 8.57 µM

**Q.** What about the GI50 (MDA-MB-468 breast) of the same molecule?
**A.** 2.29 µM

**Q.** What about the TGI (MDA-MB-468 breast) of the same molecule?
**A.** 6.38 µM

**Q.** What about the GI50 (MOLT-4 leukemia) of the same molecule?
**A.** 3.34 µM

**Q.** And the TGI (MOLT-4 leukemia)?
**A.** 12.3 µM

**Q.** And the GI50 (NCI-H226 lung)?
**A.** 10.2 µM

**Q.** And the TGI (NCI-H226 lung)?
**A.** 50.6 µM

**Q.** What about the GI50 (NCI-H23 lung) of the same molecule?
**A.** 5.23 µM

**Q.** What about the TGI (NCI-H23 lung) of the same molecule?
**A.** 40.3 µM

**Q.** And the GI50 (NCI-H460 lung)?
**A.** 3.26 µM

**Q.** What about the TGI (NCI-H460 lung) of the same molecule?
**A.** 18 µM

**Q.** And the GI50 (NCI-H522 lung)?
**A.** 2 µM

**Q.** What about the TGI (NCI-H522 lung) of the same molecule?
**A.** 4.72 µM

**Q.** What about the GI50 (NCI/ADR-RES ovarian) of the same molecule?
**A.** 2.4 µM

**Q.** What about the TGI (NCI/ADR-RES ovarian) of the same molecule?
**A.** 6.26 µM

**Q.** And the GI50 (OVCAR-3 ovarian)?
**A.** 2.48 µM

**Q.** What about the TGI (OVCAR-3 ovarian) of the same molecule?
**A.** 8.6 µM

**Q.** And the GI50 (OVCAR-4 ovarian)?
**A.** 26.2 µM

**Q.** What about the TGI (OVCAR-4 ovarian) of the same molecule?
**A.** > 100 µM

**Q.** What about the GI50 (OVCAR-5 ovarian) of the same molecule?
**A.** 4.31 µM

**Q.** And the TGI (OVCAR-5 ovarian)?
**A.** 44.9 µM

**Q.** What about the GI50 (OVCAR-8 ovarian) of the same molecule?
**A.** 2.39 µM

**Q.** What about the TGI (OVCAR-8 ovarian) of the same molecule?
**A.** 5.57 µM

**Q.** What about the GI50 (PC-3 prostate) of the same molecule?
**A.** 3.96 µM

**Q.** And the TGI (PC-3 prostate)?
**A.** 75 µM

**Q.** What about the GI50 (RPMI-8226 leukemia) of the same molecule?
**A.** 3.05 µM

**Q.** What about the TGI (RPMI-8226 leukemia) of the same molecule?
**A.** 10.9 µM

**Q.** And the GI50 (RXF 393 renal)?
**A.** 2.37 µM

**Q.** And the TGI (RXF 393 renal)?
**A.** 5.93 µM

**Q.** And the GI50 (SF-268 CNS)?
**A.** 4.94 µM

**Q.** And the TGI (SF-268 CNS)?
**A.** 48.3 µM

**Q.** What about the GI50 (SF-295 CNS) of the same molecule?
**A.** 3.16 µM

**Q.** What about the TGI (SF-295 CNS) of the same molecule?
**A.** 14.1 µM

**Q.** And the GI50 (SF-539 CNS)?
**A.** 2.35 µM

**Q.** What about the TGI (SF-539 CNS) of the same molecule?
**A.** 5.51 µM

**Q.** And the GI50 (SK-MEL-2 melanoma)?
**A.** 3.04 µM

**Q.** And the TGI (SK-MEL-2 melanoma)?
**A.** 9.76 µM

**Q.** And the GI50 (SK-MEL-28 melanoma)?
**A.** 7.18 µM

**Q.** What about the TGI (SK-MEL-28 melanoma) of the same molecule?
**A.** 52.9 µM

**Q.** And the GI50 (SK-MEL-5 melanoma)?
**A.** 2.94 µM

**Q.** And the TGI (SK-MEL-5 melanoma)?
**A.** 11.3 µM

**Q.** And the GI50 (SK-OV-3 ovarian)?
**A.** 3.61 µM

**Q.** What about the TGI (SK-OV-3 ovarian) of the same molecule?
**A.** 36.2 µM

**Q.** And the GI50 (SN12C renal)?
**A.** 4.13 µM

**Q.** What about the TGI (SN12C renal) of the same molecule?
**A.** 18.9 µM

**Q.** What about the GI50 (SNB-19 CNS) of the same molecule?
**A.** 3.84 µM

**Q.** What about the TGI (SNB-19 CNS) of the same molecule?
**A.** 20.2 µM

**Q.** And the GI50 (SNB-75 CNS)?
**A.** 2.87 µM

**Q.** And the TGI (SNB-75 CNS)?
**A.** 15.1 µM

**Q.** What about the GI50 (SW-620 colon) of the same molecule?
**A.** 4.6 µM

**Q.** And the TGI (SW-620 colon)?
**A.** > 100 µM

**Q.** And the GI50 (T-47D breast)?
**A.** 7.94 µM

**Q.** What about the TGI (T-47D breast) of the same molecule?
**A.** > 100 µM

**Q.** And the GI50 (TK-10 renal)?
**A.** 29.1 µM

**Q.** What about the TGI (TK-10 renal) of the same molecule?
**A.** > 100 µM

**Q.** What about the GI50 (U251 CNS) of the same molecule?
**A.** 3.44 µM

**Q.** And the TGI (U251 CNS)?
**A.** 12.7 µM

**Q.** What about the GI50 (UACC-257 melanoma) of the same molecule?
**A.** 6.86 µM

**Q.** What about the TGI (UACC-257 melanoma) of the same molecule?
**A.** 69.2 µM

**Q.** What about the GI50 (UACC-62 melanoma) of the same molecule?
**A.** 4.17 µM

**Q.** And the TGI (UACC-62 melanoma)?
**A.** > 100 µM
